Data as given in US20260274818A1, “HETEROCYCLOALKYL BETA-HYDROXY ALKYL AMINES FOR USE IN THE TREATMENT OF HYPERGLYCAEMIA AND DISORDERS CHARACTERISED BY HYPERGLYCAEMIA” (ATROGI AB, priority 2023, published 2026).
Structures can show the parent of a compound that is named as a salt.

Key:
L6-myotubes = assay: Glucose uptake (3H-2-deoxyglucose) in differentiated L6-myotubes; assay type: cell-based; conditions: compound at 10 μM vs isoproterenol at 10 μM
Method: (§1) L6-myoblasts were grown in Dulbecco's Modified Eagle's Medium (DMEM) containing 1 g/L glucose supplemented with 10% fetal bovine serum, 2 mM L-Glutamine, 50 U/mL penicillin, […] streptomycin and 10 mM HEPES. Cells were plated at 1×10^5 cells per mL in 24-well plates. After reaching 90% confluence the cells were grown in medium containing 2% FBS for 7 days where upon cells differentiated into myotubes.
Differentiated L6-myotubes were serum-starved overnight in medium containing 0.5% fatty-acid free BSA and stimulated with an agonist, with a final concentration of 1×10^−5 M. After 1 h 40 min the cells were washed with warm glucose free medium or PBS twice and another portion of agonist was added to the glucose free medium. After 20 min the cells were exposed to 50 nM ^3H-2-deoxyglucose for another 10 min before washed in ice cold glucose free medium or PBS three times and lysed in 400 μL/well 0.2 M NaOH for 1 h at 60° C. The cell lysate was mixed with 4 mL scintillation buffer (Emulsifier Safe, Perkin Elmer) and the radioactivity was detected in a β-counter (Tri-Carb 4810TR, Perkin Elmer). The activity for each compound is compared to that of isoproterenol.

Intracellular cAMP = assay: Measurement of intracellular cAMP levels in differentiated L6 cells (alpha screen cAMP kit); assay type: cell-based; conditions: compound at 10 μM for 15 min vs isoproterenol at 10 μM
Method: as §1
Differentiated cells were serum-starved overnight and stimulated with an agonist, final concentration 1×10^−5 M, for 15 min in stimulation buffer (HBSS supplemented with 1% BSA, 5 mM HEPES and 1 mM IBMX, pH 7.4). The medium was aspirated and 100 μL of 95% EtOH was added to each well of the 24-well plate and cells were kept at −20° C. overnight. The EtOH was allowed to evaporate and 500 μL of lysis buffer (1% BSA, 5 mM HEPES and 0.3% Tween-20, pH 7.4) was added to each well. The plate was kept at −80° C. for 30 min and then at −20° C. until the day of detection when the samples were thawed. Intracellular cAMP levels were detected using an alpha screen cAMP kit (6760635D from Perkin Elmer). The activity for each compound is compared to that of isoproterenol.

Structure (SMILES)	Biological example 1: glucose uptake, activity compared to that of isoproterenol (L6-myotubes)	Biological example 2: intracellular cAMP levels, activity compared to that of isoproterenol (Intracellular cAMP)
OC(c1cccc(F)c1)[C@H]1CC[C@@H](CC2CCCNC2)N1 (stereo in doubt) [Example 3, (S)-(3-Fluorophenyl)((2R,5S)-5-(((R)-piperidin-3-yl)methyl)pyrrolidin-2-yl)methanol dihydrochloride]	+ (if it is between 50 and 25% it is denoted with +)	− (if it less than 25% it is denoted with −)
OC(c1cccc(F)c1)[C@H]1CC[C@@H](CC2CCCNC2)N1 (stereo in doubt) [Example 6, (R)-(3-Fluorophenyl)((2R,5S)-5-(((S)-piperidin-3-yl)methyl)pyrrolidin-2-yl)methanol dihydrochloride]	+++ (more than 75% of that of isoproterenol at 10 μM, the activity is denoted with +++)	− (if it less than 25% it is denoted with −)
O[C@H](c1cccc(F)c1)[C@H]1CC[C@@H](CC2CCNCC2)N1 [Example 1, (R)-(3-Fluorophenyl)((2R,5S)-5-(piperidin-4-ylmethyl)pyrrolidin-2-yl)-methanol dihydrochloride]	++ (if it is between 75 and 50% it is denoted with ++)	− (if it less than 25% it is denoted with −)
O[C@@H](c1cccc(F)c1)[C@H]1CC[C@@H](CC2CCNCC2)N1 [Example 2, (S)-(3-Fluorophenyl)((2R,5S)-5-(piperidin-4-ylmethyl)pyrrolidin-2-yl)-methanol dihydrochloride]	+ (if it is between 50 and 25% it is denoted with +)	− (if it less than 25% it is denoted with −)
O[C@@H](c1cccc(F)c1)[C@H]1CC[C@@H](C[C@@H]2CCCNC2)N1 [Example 4, (S)-(3-Fluorophenyl)((2R,5S)-5-(((S)-piperidin-3-yl)methyl)pyrrolidin-2-yl)methanol dihydrochloride]	++ (if it is between 75 and 50% it is denoted with ++)	− (if it less than 25% it is denoted with −)
O[C@H](c1cccc(F)c1)[C@H]1CC[C@@H](C[C@H]2CCCNC2)N1 [Example 5, (R)-(3-Fluorophenyl)((2R,5S)-5-(((R)-piperidin-3-yl)methyl)pyrrolidin-2-yl)methanol dihydrochloride]	++ (if it is between 75 and 50% it is denoted with ++)	− (if it less than 25% it is denoted with −)
CS(=O)(=O)N1CCC(C[C@@H]2CC[C@H]([C@H](O)c3cccc(F)c3)N2)CC1.Cl [Example 7, (R)-(3-Fluorophenyl)((2R,5S)-5-((1-(methylsulfonyl)piperidin-4-yl)-methyl)pyrrolidin-2-yl)methanol hydrochloride]	+++ (more than 75% of that of isoproterenol at 10 μM, the activity is denoted with +++)	− (if it less than 25% it is denoted with −)
CS(=O)(=O)N1CCC(C[C@@H]2CC[C@H]([C@@H](O)c3cccc(F)c3)N2)CC1.Cl [Example 8, (S)-(3-Fluorophenyl)((2R,5S)-5-((1-(methylsulfonyl)piperidin-4-yl)-methyl)pyrrolidin-2-yl)methanol hydrochloride]	++ (if it is between 75 and 50% it is denoted with ++)	− (if it less than 25% it is denoted with −)
CC(=O)N1CCC(C[C@@H]2CC[C@H]([C@H](O)c3cccc(F)c3)N2)CC1.Cl [Example 9, 1-(4-(((2S,5R)-5-((R)-(3-Fluorophenyl)(hydroxy)methyl)pyrrolidin-2-yl)methyl)piperidin-1-yl)ethan-1-one hydrochloride]	+++ (more than 75% of that of isoproterenol at 10 μM, the activity is denoted with +++)	− (if it less than 25% it is denoted with −)
CC(=O)N1CCC(C[C@@H]2CC[C@H]([C@@H](O)c3cccc(F)c3)N2)CC1.Cl [Example 10, 1-(4-(((2S,5R)-5-((S)-(3-Fluorophenyl)(hydroxy)methyl)pyrrolidin-2-yl)methyl)piperidin-1-yl)ethan-1-one hydrochloride]	− (if it less than 25% it is denoted with −)	− (if it less than 25% it is denoted with −)
CS(=O)(=O)N1CCC[C@H](C[C@@H]2CC[C@H]([C@@H](O)c3cccc(F)c3)N2)C1.Cl [Example 11, (S)-(3-Fluorophenyl)((2R,5S)-5-(((R)-1-(methylsulfonyl)piperidin-3-yl)methyl)pyrrolidin-2-yl)methanol hydrochloride]	+ (if it is between 50 and 25% it is denoted with +)	− (if it less than 25% it is denoted with −)
CS(=O)(=O)N1CCC[C@H](C[C@@H]2CC[C@H]([C@H](O)c3cccc(F)c3)N2)C1.Cl [Example 12, (R)-(3-Fluorophenyl)((2R,5S)-5-(((R)-1-(methylsulfonyl)piperidin-3-yl)methyl)pyrrolidin-2-yl)methanol hydrochloride]	+++ (more than 75% of that of isoproterenol at 10 μM, the activity is denoted with +++)	− (if it less than 25% it is denoted with −)
CS(=O)(=O)N1CCC[C@@H](C[C@@H]2CC[C@H]([C@@H](O)c3cccc(F)c3)N2)C1.Cl [Example 13, (S)-(3-Fluorophenyl)((2R,5S)-5-(((S)-1-(methylsulfonyl)piperidin-3-yl)methyl)pyrrolidin-2-yl)methanol hydrochloride]	++ (if it is between 75 and 50% it is denoted with ++)	− (if it less than 25% it is denoted with −)
CS(=O)(=O)N1CCC[C@@H](C[C@@H]2CC[C@H]([C@H](O)c3cccc(F)c3)N2)C1.Cl [Example 14, (R)-(3-Fluorophenyl)((2R,5S)-5-(((S)-1-(methylsulfonyl)piperidin-3-yl)methyl)pyrrolidin-2-yl)methanol hydrochloride]	+++ (more than 75% of that of isoproterenol at 10 μM, the activity is denoted with +++)	− (if it less than 25% it is denoted with −)
Cl.O[C@@H](c1cccc(F)c1)[C@H]1CC[C@@H](CC2CCOCC2)N1 [Example 15, (S)-(3-Fluorophenyl)((2R,5S)-5-((tetrahydro-2H-pyran-4-yl)methyl)-pyrrolidin-2-yl)methanol hydrochloride]	++ (if it is between 75 and 50% it is denoted with ++)	− (if it less than 25% it is denoted with −)
Cl.O[C@H](c1cccc(F)c1)[C@H]1CC[C@@H](CC2CCOCC2)N1 [Example 16, (R)-(3-Fluorophenyl)((2R,5S)-5-((tetrahydro-2H-pyran-4-yl)methyl)-pyrrolidin-2-yl)methanol hydrochloride]	+++ (more than 75% of that of isoproterenol at 10 μM, the activity is denoted with +++)	+ (if it is between 50 and 25% it is denoted with +)
